The compounds below were run against T1, Ba/F3 cell EGFR Exon20 ins NPH (Homo sapiens, UniProt P00533, INS773NPH) (assay: Ba/F3 cell proliferation suppression, EGFR Exon20 ins NPH). Details: GI50 class; Ba/F3 cell line with NPH inserted at Exon20 of EGFR; 72 hours.
T1 construct: expressed in transfected cells; host or cells: Ba/F3
Format: cell-based
Outline: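 Cells were seeded 24 h before dosing and then treated for 72 hours with compound at final concentrations of 0.3 nM to 50 um. Live cells were measured by CellTiter-Glo luminescence, and GI50 values were derived from growth ratio relative to control across three repeats.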
With `C=CC(=O)Nc1cc(Nc2cc(N3OCC[C@@H]3c3ccc4ccccc4c3)ncn2)c(OC)cc1N1CCC(N2CCN(C(C)=O)CC2)CC1` [compound 556, N-(2-(4-(4-acetylpiperazine-1-yl)piperidine-1-yl)-4-methoxy-5-((6-((R)-3-(naphthalene-2-yl)isoxazolidine-2-yl)pyrimidine-4-yl)amino)phenyl) acrylamide] the “Ba/F3 (NPH) Activity” value was “B (50 nM ≤ GI50 < 500 nM)”.
In the case of `C=CC(=O)Nc1cc(Nc2cc(N3OCC[C@@H]3c3cc(F)ccc3F)ncn2)c(OC)cc1N1C[C@H]2C[C@@H]1CO2` [compound 328, N-(2-((1R,4R)-2-oxa-5-azabicyclo[2.2.1]heptane-5-yl)-5-((6-((R)-3-(2,5-difluorophenyl)isoxazolidine-2-yl)pyrimidine-4-yl)amino)-4-methoxyphenyl) acrylamide], the “Ba/F3 (NPH) Activity” value is reported as “A (GI50 < 50 nM)”.
For `C=CC(=O)Nc1cc(Nc2cc(N3OCC[C@@H]3c3cccc(F)c3F)ncn2)c(OC)cc1N1CCC(N2CC3CCC(C2)N3C2CC2)CC1` [Example 135, N-(2-(4-(8-cyclopropyl-3,8-diazabicyclo[3.2.1]octan-3-yl)piperidine-1-yl)-5-((6-((R)-3-(2,3-difluorophenyl)isoxazolidine-2-yl)pyrimidine-4-yl)amino)-4-methoxyphenyl) acrylamide], the “Ba/F3 (NPH) Activity” value was “A (GI50 < 50 nM)”.
With `C=CC(=O)Nc1cc(Nc2cc(N3OCC[C@@H]3c3ccc(F)cc3F)ncn2)c(OC)cc1N1CCC(N(C)CCN(C)C)CC1` [compound 422, N-(5-((6-((R)-3-(2,4-difluorophenyl)isoxazolidine-2-yl)pyrimidine-4-yl)amino)-2-(4-((2-(dimethylamino)ethyl)(methyl)amino)piperidine-1-yl)-4-methoxyphenyl) acrylamide] the “Ba/F3 (NPH) Activity” value was “A (GI50 < 50 nM)”.
For `C=CC(=O)Nc1cc(Nc2cc(N3OCC[C@@H]3Cc3ccccc3)ncn2)c(OC)cc1N1CCN(C2CC2)CC1` [compound 952, N-(5-((6-((S)-3-benzylisoxazolidine-2-yl)pyrimidine-4-yl)amino)-2-(4-cyclopropylpiperazine-1-yl)-4-methoxyphenyl) acrylamide], the “Ba/F3 (NPH) Activity” value was “A (GI50 < 50 nM)”.
With `C=CC(=O)Nc1cc(Nc2cc(N3OCC[C@@H]3c3c(F)ccc(F)c3F)ncn2)c(OC)cc1N1CCC(N2C[C@H]3C[C@@H]2CO3)CC1` [compound 641, N-(2-(4-((1R,4R)-2-oxa-5-azabicyclo[2.2.1]heptane-5-yl)piperidine-1-yl)-4-methoxy-5-((6-((R)-3-(2,3,6-trifluorophenyl)isoxazolidine-2-yl)pyrimidine-4-yl)amino)phenyl)acrylamide] the “Ba/F3 (NPH) Activity” value was “A (GI50 < 50 nM)”.
With `C=CC(=O)Nc1cc(Nc2cc(N3OCC[C@@H]3c3ccccc3)ncn2)c(OC)cc1N1C2CC1CN(C)C2` [Example 35, N-(4-methoxy-2-(3-methyl-3,6-diazabicyclo[3.1.1]heptane-6-yl)-5-((6-((R)-3-phenylisoxazolidine-2-yl)pyrimidine-4-yl)amino)phenyl) acrylamide] the “Ba/F3 (NPH) Activity” value was “B (50 nM ≤ GI50 < 500 nM)”.
In the case of `C=CC(=O)Nc1cc(Nc2cc(N3OCC[C@@H]3c3cccc(F)c3Cl)ncn2)c(OC)cc1N1CC[C@@H](N(C)C)C1` [compound 558, N-(5-((6-((R)-3-(2-chloro-3-fluorophenyl)isoxazolidine-2-yl)pyrimidine-4-yl)amino)-2-((R)-3-(dimethylamino)pyrolidine-1-yl)-4-methoxyphenyl) acrylamide], the “Ba/F3 (NPH) Activity” value is reported as “A (GI50 < 50 nM)”.
With `C=CC(=O)Nc1cc(Nc2cc(N3OCC[C@@H]3c3cccc(F)c3)ncn2)c(OC)cc1N1CCC(N2CCN(C(C)=O)CC2)CC1` [compound 741, N-(2-(4-(4-acetylpiperazine-1-yl)piperidine-1-yl)-5-((6-((R)-3-(3-fluorophenyl)isoxazolidine-2-yl)pyrimidine-4-yl)amino)-4-methoxyphenyl) acrylamide] the “Ba/F3 (NPH) Activity” value was “A (GI50 < 50 nM)”.
`C=CC(=O)Nc1cc(Nc2cc(N3OCC[C@@H]3c3c(F)ccc(F)c3F)ncn2)c(OC)cc1N1CCN(CC)CC1` [compound 631, N-(2-(4-ethylpiperazine-1-yl)-4-methoxy-5-((6-((R)-3-(2,3,6-trifluorophenyl)isoxazolidine-2-yl)pyrimidine-4-yl)amino)phenyl)acrylamide] was tested, and the “Ba/F3 (NPH) Activity” value was “B (50 nM ≤ GI50 < 500 nM)”.
In the case of `C=CC(=O)Nc1cc(Nc2cc(N3OCC[C@@H]3c3cccc(Cl)c3C)ncn2)c(OC)cc1N1CCC(N2CCN(C(C)C)CC2)CC1` [compound 580, N-(5-((6-((R)-3-(3-chloro-2-methylphenyl)isoxazolidine-2-yl)pyrimidine-4-yl)amino)-2-(4-(4-isopropylpiperazine-1-yl)piperidine-1-yl)-4-methoxyphenyl) acrylamide], the “Ba/F3 (NPH) Activity” value is reported as “A (GI50 < 50 nM)”.
In the case of `C=CC(=O)Nc1cc(Nc2cc(N3OCC[C@@H]3c3ccc(F)c(F)c3)ncn2)c(OC)cc1N1CCC(N2CCN(C(C)=O)CC2)CC1` [compound 544, N-(2-(4-(4-acetylpiperazine-1-yl)piperidine-1-yl)-5-((6-((R)-3-(3,4-difluorophenyl)isoxazolidine-2-yl)pyrimidine-4-yl)amino)-4-methoxyphenyl) acrylamide], the “Ba/F3 (NPH) Activity” value is reported as “A (GI50 < 50 nM)”.
In the case of `C=CC(=O)Nc1cc(Nc2cc(N3OCC[C@@H]3c3cc(F)ccc3F)ncn2)c(OC)cc1N1CCC(N2CCO[C@@H](C)C2)CC1` [compound 821, N-(5-((6-((R)-3-(2,5-difluorophenyl)isoxazolidine-2-yl)pyrimidine-4-yl)amino)-4-methoxy-2-(4-((S)-2-methylmorpholino)piperidine-1-yl)phenyl) acrylamide], the “Ba/F3 (NPH) Activity” value is reported as “A (GI50 < 50 nM)”.
With `C=CC(=O)Nc1cc(Nc2cc(N3OCC[C@@H]3c3ccc(F)c(F)c3)ncn2)c(OC)cc1N1CC[C@H](N2CCOCC2)C1` [compound 579, N-(5-((6-((R)-3-(3,4-difluorophenyl)isoxazolidine-2-yl)pyrimidine-4-yl)amino)-4-methoxy-2-((S)-3-morpholinopyrolidine-1-yl)phenyl)acrylamide] the “Ba/F3 (NPH) Activity” value was “C (500 nM ≤ GI50 < 5000 nM)”.
In the case of `C=CC(=O)Nc1cc(Nc2cc(N3OCC[C@@H]3c3cccc(Cl)c3)ncn2)c(OC)cc1N1CCC(N2CCC(N(C)C)CC2)CC1` [compound 414, N-(5-((6-((R)-3-(3-chlorophenyl)isoxazolidine-2-yl)pyrimidine-4-yl)amino)-2-(4-(dimethylamino)-[1,4'-bipiperidine]-1'-yl)-4-methoxyphenyl) acrylamide], the “Ba/F3 (NPH) Activity” value is reported as “A (GI50 < 50 nM)”.
In the case of `C=CC(=O)Nc1cc(Nc2cc(N3OCC[C@@H]3c3ccc(F)c(F)c3)ncn2)c(OC)cc1N1CCC(N2C[C@@H](C)O[C@@H](C)C2)CC1` [compound 543, N-(5-((6-((R)-3-(3,4-difluorophenyl)isoxazolidine-2-yl)pyrimidine-4-yl)amino)-2-(4-((2S,6R)-2,6-dimethylmorpholino)piperidine-1-yl)-4-methoxyphenyl) acrylamide], the “Ba/F3 (NPH) Activity” value is reported as “A (GI50 < 50 nM)”.
In the case of `C=CC(=O)Nc1cc(Nc2cc(N3OCC[C@@H]3c3cc(F)ccc3F)ncn2)c(OC)cc1N1CC[C@H](N2CCOCC2)C1` [compound 302, N-(5-((6-((R)-3-(2,5-difluorophenyl)isoxazolidine-2-yl)pyrimidine-4-yl)amino)-4-methoxy-2-((S)-3-morpholinopyrolidine-1-yl)phenyl)acrylamide], the “Ba/F3 (NPH) Activity” value is reported as “B (50 nM ≤ GI50 < 500 nM)”.
In the case of `C=CC(=O)Nc1cc(Nc2cc(N3OCC[C@@H]3c3ccc(Cl)c(F)c3)ncn2)c(OC)cc1N1CCC(N2CC[C@@H](N(C)C)C2)CC1` [compound 800, N-(5-((6-((R)-3-(4-chloro-3-fluorophenyl)isoxazolidine-2-yl)pyrimidine-4-yl)amino)-2-(4-((R)-3-(dimethylamino)pyrolidine-1-yl)piperidine-1-yl)-4-methoxyphenyl) acrylamide], the “Ba/F3 (NPH) Activity” value is reported as “A (GI50 < 50 nM)”.
For `C=CC(=O)Nc1cc(Nc2cc(N3OCC[C@@H]3c3cc(F)cc(F)c3)ncn2)c(OC)cc1N1CCN(C2COC2)CC1` [Example 273, N-(5-((6-((R)-3-(3,5-difluorophenyl)isoxazolidine-2-yl)pyrimidine-4-yl)amino)-4-methoxy-2-(4-(oxetane-3-yl)piperazine-1-yl)phenyl)acrylamide], the “Ba/F3 (NPH) Activity” value was “B (50 nM ≤ GI50 < 500 nM)”.
With `C=CC(=O)Nc1cc(Nc2cc(N3OCC[C@@H]3c3ccccc3)ncn2)c(OC)cc1N1CCC(N(C)CCOC)CC1` [compound 736, N-(4-methoxy-2-(4-((2-methoxyethyl) (methyl)amino)piperidine-1-yl)-5-((6-((R)-3-phenylisoxazolidine-2-yl)pyrimidine-4-yl)amino)phenyl) acrylamide] the “Ba/F3 (NPH) Activity” value was “A (GI50 < 50 nM)”.
In the case of `C=CC(=O)Nc1cc(Nc2cc(N3OCC[C@@H]3c3ccc(F)cc3F)ncn2)c(OC)cc1N1C[C@@H]2C[C@H]1CN2CC` [compound 354, N-(5-((6-((R)-3-(2,4-difluorophenyl)isoxazolidine-2-yl)pyrimidine-4-yl)amino)-2-((1S,4S)-5-ethyl-2,5-diazabicyclo[2.2.1]heptane-2-yl)-4-methoxyphenyl) acrylamide], the “Ba/F3 (NPH) Activity” value is reported as “A (GI50 < 50 nM)”.
For `C=CC(=O)Nc1cc(Nc2cc(N3OCC[C@@H]3c3cc(F)cc(Cl)c3)ncn2)c(OC)cc1N1CCC(O)CC1` [compound 591, N-(5-((6-((R)-3-(3-chloro-5-fluorophenyl)isoxazolidine-2-yl)pyrimidine-4-yl)amino)-2-(4-hydroxypiperidine-1-yl)-4-methoxyphenyl) acrylamide], the “Ba/F3 (NPH) Activity” value was “A (GI50 < 50 nM)”.
In the case of `C=CC(=O)Nc1cc(Nc2cc(N3OCC[C@@H]3c3cc(F)cc(F)c3)ncn2)c(OC)cc1N1CCC(N2CCOC[C@@H]2C)CC1` [compound 843, N-(5-((6-((R)-3-(3,5-difluorophenyl)isoxazolidine-2-yl)pyrimidine-4-yl)amino)-4-methoxy-2-(4-((S)-3-methylmorpholino)piperidine-1-yl)phenyl) acrylamide], the “Ba/F3 (NPH) Activity” value is reported as “A (GI50 < 50 nM)”.

— patent publication US12157730B2, “Heteroaryl derivative, method for producing same, and pharmaceutical composition comprising same as effective component” (VORONOI INC., priority 2019, dated 2024)
